Where a SMILES comes first, the peptide text is derived from it. [ ]: non-standard residue; d: D form.
Target: T1, Aβ(1-42)-oligomers (Homo sapiens, UniProt P05067)
T1 construct: Synthetic Aβ(1-42) and (Gln^22, Asn^23)-Amyloid β-Protein (1-40) (D/I Aβ) with >95% purity were purchased; purchased Bachem (Bubendorf, Switzerland); host or cells: chemical synthesis
Test: QIAD assay, Aβ(1-42) oligomer elimination
Format: biochemical
Settings: 80 µM Aβ(1-42) preincubated 2 h, 20 µM D-peptide, 30 min coincubation, density gradient fractions 4-6, RP-HPLC UV 214 nm, N = 2-5
Protocol: According to Brener et al., a QIAD assay was performed in order to evaluate the Aβ(1-42) or D/I Aβ oligomer elimination efficacies of RD2D3 and cRD2D3 [18]. In short, 80 µM lyophilized Aβ(1-42) or 40 µM D/I Aβ was preincubated for 2 h or 15 min, respectively, to enrich Aβ-oligomers. Afterwards, either 20 µM RD2D3 or cRD2D3 for Aβ(1-42) or 10 µM RD2D3 or cRD2D3 for D/I Aβ were added to the preincubated solution and coincubated for additional 30 min. Subsequently, the samples were loaded on the top of a density gradient (5–50% (w/v) iodixanol (OptiPrep, Sigma-Aldrich, Darmstadt, Germany)) followed by an ultracentrifugation step (3 h at 4 °C and 259000× g (Optima TL-100, Beckman Coulter, Brea, CA, USA)). Following the ultracentrifugation, 14 fractions (140 µL each) were harvested by upward displacement. Fraction 15 contains the dissolved pellet in 6 M guanidine hydrochloride solution. Top fractions 1–2 contained Aβ-monomers, fractions 4–6 contained the Aβ-oligomers, which are of special interest, and the bottom fractions 11–14 contained high molecular weight (co-)precipitates or aggregated Aβ. Aβ(1-42) or D/I Aβ concentrations of each fraction were determined via analytical RP-HPLC and UV absorbance detection at 214 nm.

T1 sequence (P05067 672-713): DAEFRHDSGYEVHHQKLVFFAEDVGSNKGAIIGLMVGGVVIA

CC(C)C[C@H]1NC(=O)[C@@H](CCCNC(=N)N)NC(=O)[C@@H]([C@H](C)O)NC(=O)[C@@H](CCCNC(=N)N)NC(=O)[C@H]2CCCN2C(=O)[C@@H](CCCNC(=N)N)NC(=O)[C@@H](CCCNC(=N)N)NC(=O)[C@@H](CCCNC(=N)N)NC(=O)[C@@H](CCCNC(=N)N)NC(=O)[C@@H](CCCNC(=N)N)NC(=O)[C@@H](CCCNC(=N)N)NC(=O)[C@@H](CC(N)=O)NC(=O)[C@@H](Cc2c[nH]cn2)NC(=O)[C@@H]([C@H](C)O)NC(=O)[C@@H](Cc2c[nH]cn2)NC(=O)[C@@H](CC(C)C)NC(=O)[C@@H]([C@H](C)O)NC(=O)[C@H]2CCCN2C(=O)[C@@H](CCCNC(=N)N)NC(=O)[C@@H](CC(N)=O)NC(=O)[C@@H](CCCNC(=N)N)NC(=O)[C@@H](Cc2c[nH]cn2)NC(=O)[C@@H]([C@H](C)O)NC(=O)[C@@H](Cc2c[nH]cn2)NC1=O [cRD2D3] (cyclo([dH][dN][dR][dR][dR][dR][dR][dR][dP][dR][dT][dR][dL][dH][dT][dH][dR][dN][dR][dP][dT][dL][dH][dT]))
Elimination of toxic Aβ(1-42)-oligomers (QIAD): 80%

Source: paper PMC8234218, “In Vitro and In Vivo Efficacies of the Linear and the Cyclic Version of an All-D-Enantiomeric Peptide Developed for the Treatment of Alzheimer’s Disease” (International Journal of Molecular Sciences, 2021)
